What was measured:
blackgrass [1] = experiment: Test C preemergence; format: in vivo, Alopecurus myosuroides; settings: 0 to 100 scale (0 no effect, 100 complete control)
In short: (§1)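 Greenhouse herbicide screen, 10-day duration. Test chemicals in solvent/surfactant blend were sprayed onto soil at sowing (pre) or onto 2–10 cm seedlings at one to two leaves (post); injury scored visually against controls, 0 no effect to 100 complete control.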

ryegrass, Italian [2] = experiment: Test C postemergence; format: in vivo, Lolium multiflorum; settings: 10 days
In short: as §1

rice = experiment: Test D flooded paddy test; format: in vivo, Oryza sativa; settings: 250 g ai/ha, applied to paddy water, visual rating after 13 to 14 days, scale 0 to 100 (0 no effect, 100 complete control)
In short: (§2)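 Seedlings reached the 2-leaf stage, then pots were flooded to 3 cm over the soil surface. Compound was applied into the water, depth was maintained, and plants stayed in the greenhouse 13 to 14 days before visual scoring (0–100) relative to controls.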

corn [3] = experiment: Test C postemergence; format: in vivo, Zea mays; settings: 10 days
In short: as §1

ragweed [4] = experiment: Test C postemergence; format: in vivo, Ambrosia artemisiifolia; settings: 10 days
In short: as §1

ryegrass, Italian [5] = experiment: Test C preemergence; format: in vivo, Lolium multiflorum; settings: 0 to 100 scale (0 no effect, 100 complete control)
In short: as §1

wheat [6] = experiment: Test C preemergence; format: in vivo, Triticum aestivum; settings: 0 to 100 scale (0 no effect, 100 complete control)
In short: as §1

soybean [7] = experiment: Test C postemergence; format: in vivo, Glycine max; settings: 10 days
In short: as §1

kochia [8] = experiment: Test C postemergence; format: in vivo, Bassia scoparia; settings: 10 days
In short: as §1

barnyardgrass [9] = experiment: Test C preemergence; format: in vivo, Echinochloa crusgalli; settings: 0 to 100 scale (0 no effect, 100 complete control)
In short: as §1

sedge, umbrella = experiment: Test D flooded paddy test; format: in vivo, Cyperus difformis; settings: 250 g ai/ha, applied to paddy water, visual rating after 13 to 14 days, scale 0 to 100 (0 no effect, 100 complete control)
In short: as §2

blackgrass [10] = experiment: Test C postemergence; format: in vivo, Alopecurus myosuroides; settings: 10 days
In short: as §1

corn [11] = experiment: Test C preemergence; format: in vivo, Zea mays; settings: 0 to 100 scale (0 no effect, 100 complete control)
In short: as §1

pigweed, palmer [12] = experiment: Test C postemergence; format: in vivo, Amaranthus palmeri; settings: 10 days
In short: as §1

green foxtail [13] = experiment: Test C postemergence; format: in vivo, Setaria viridis; settings: 10 days
In short: as §1

pigweed, palmer [14] = experiment: Test C preemergence; format: in vivo, Amaranthus palmeri; settings: 0 to 100 scale (0 no effect, 100 complete control)
In short: as §1

ducksalad = experiment: Test D flooded paddy test; format: in vivo, Heteranthera limosa; settings: 250 g ai/ha, applied to paddy water, visual rating after 13 to 14 days, scale 0 to 100 (0 no effect, 100 complete control)
In short: as §2

oat, wild [15] = experiment: Test C preemergence; format: in vivo, Avena fatua; settings: 0 to 100 scale (0 no effect, 100 complete control)
In short: as §1

horseweed = experiment: Test C postemergence; format: in vivo, Erigeron canadensis; settings: 10 days
In short: as §1

soybean [16] = experiment: Test C preemergence; format: in vivo, Glycine max; settings: 0 to 100 scale (0 no effect, 100 complete control)
In short: as §1

barnyardgrass [17] = experiment: Test C postemergence; format: in vivo, Echinochloa crusgalli; settings: 10 days
In short: as §1

wheat [18] = experiment: Test C postemergence; format: in vivo, Triticum aestivum; settings: 10 days
In short: as §1

ragweed [19] = experiment: Test C preemergence; format: in vivo, Ambrosia artemisiifolia; settings: 0 to 100 scale (0 no effect, 100 complete control)
In short: as §1

green foxtail [20] = experiment: Test C preemergence; format: in vivo, Setaria viridis; settings: 0 to 100 scale (0 no effect, 100 complete control)
In short: as §1

barnyardgrass [21] = experiment: Test D flooded paddy test; format: in vivo, Echinochloa crus-galli; settings: 250 g ai/ha, applied to paddy water, visual rating after 13 to 14 days, scale 0 to 100 (0 no effect, 100 complete control)
In short: as §2

oat, wild [22] = experiment: Test C postemergence; format: in vivo, Avena fatua; settings: 10 days
In short: as §1

kochia [23] = experiment: Test C preemergence; format: in vivo, Bassia scoparia; settings: 0 to 100 scale (0 no effect, 100 complete control)
In short: as §1

[24] = Preemergence, 500 g ai/ha, visual rating after 10 days
[25] = Test C, preemergence, 125 g ai/ha
[26] = 125 g ai/ha, postemergence, 0 to 100 scale, 0 no effect, 100 complete control
[27] = Postemergence, 500 g ai/ha, visual 0 to 100 scale (0 no effect, 100 complete control)

With `CCc1ncn(-c2ccc(OC)c(C(=O)N3C[C@H](C)Oc4c(C)cccc43)c2)n1` [Compound 211] the “Plant response rating, Blackgrass” value (blackgrass [1]; [24]) was 90, the “Blackgrass plant response rating” value (blackgrass [1]; [25]) was 90 and the “Plant response rating, Ryegrass, Italian” value (ryegrass, Italian [2]; [26]) was 70. For the same molecule, the “Plant response rating, Ryegrass, Italian” value (ryegrass, Italian [2]; [27]) was 90, the “Plant response rating, Rice (Flood)” value (rice) was 50 and the “Plant response rating, Corn” value (corn [3]; [26]) was 70. For the same molecule, the “Plant response rating, Corn” value (corn [3]; [27]) was 90, the “Plant response rating, Ragweed” value (ragweed [4]; [26]) was 50 and the “Plant response rating, Ragweed” value (ragweed [4]; [27]) was 70. For the same molecule, the “Plant response rating, Ryegrass, Italian” value (ryegrass, Italian [5]; [24]) was 100, the “Ryegrass, Italian plant response rating” value (ryegrass, Italian [5]; [25]) was 100 and the “Plant response rating, Wheat” value (wheat [6]; [24]) was 80. The “Wheat plant response rating” value (wheat [6]; [25]) was 80, the “Plant response rating, Soybean” value (soybean [7]; [26]) was 100 and the “Plant response rating, Soybean” value (soybean [7]; [27]) was 100. The “Plant response rating, Kochia” value (kochia [8]; [26]) was 70, the “Plant response rating, Kochia” value (kochia [8]; [27]) was 90 and the “Plant response rating, Barnyardgrass” value (barnyardgrass [9]; [24]) was 100. The “Barnyardgrass plant response rating” value (barnyardgrass [9]; [25]) was 100, the “Plant response rating, Sedge, Umbrella (Flood)” value (sedge, umbrella) was 100 and the “Plant response rating, Blackgrass” value (blackgrass [10]; [26]) was 90. The “Plant response rating, Blackgrass” value (blackgrass [10]; [27]) was 100, the “Plant response rating, Corn” value (corn [11]; [24]) was 70 and the “Corn plant response rating” value (corn [11]; [25]) was 70. The “Plant response rating, Pigweed, Palmer” value (pigweed, palmer [12]; [26]) was 90, the “Plant response rating, Pigweed, Palmer” value (pigweed, palmer [12]; [27]) was 100 and the “Plant response rating, Foxtail, Green” value (green foxtail [13]; [26]) was 90. The “Plant response rating, Foxtail, Green” value (green foxtail [13]; [27]) was 90, the “Plant response rating, Pigweed, Palmer” value (pigweed, palmer [14]; [24]) was 100 and the “Pigweed, Palmer plant response rating” value (pigweed, palmer [14]; [25]) was 100. The “Plant response rating, Ducksalad (Flood)” value (ducksalad) was 100, the “Plant response rating, Oat, Wild” value (oat, wild [15]; [24]) was 90 and the “Oat, Wild plant response rating” value (oat, wild [15]; [25]) was 70. The “Plant response rating, Horseweed” value (horseweed; [26]) was 80, the “Plant response rating, Horseweed” value (horseweed; [27]) was 90 and the “Plant response rating, Soybean” value (soybean [16]; [24]) was 100. The “Soybean plant response rating” value (soybean [16]; [25]) was 100, the “Plant response rating, Barnyardgrass” value (barnyardgrass [17]; [26]) was 80 and the “Plant response rating, Barnyardgrass” value (barnyardgrass [17]; [27]) was 100. The “Plant response rating, Wheat” value (wheat [18]; [26]) was 70, the “Plant response rating, Wheat” value (wheat [18]; [27]) was 90 and the “Plant response rating, Ragweed” value (ragweed [19]; [24]) was 100. The “Ragweed plant response rating” value (ragweed [19]; [25]) was 100, the “Plant response rating, Foxtail, Green” value (green foxtail [20]; [24]) was 100 and the “Foxtail, Green plant response rating” value (green foxtail [20]; [25]) was 0. The “Plant response rating, Barnyardgrass (Flood)” value (barnyardgrass [21]) was 55, the “Plant response rating, Oat, Wild” value (oat, wild [22]; [26]) was 70 and the “Plant response rating, Oat, Wild” value (oat, wild [22]; [27]) was 90. The “Plant response rating, Kochia” value (kochia [23]; [24]) was 100 and the “Kochia plant response rating” value (kochia [23]; [25]) was 100.
